From ChEMBL document CHEMBL1141186, “2-(Benzimidazol-2-yl)quinoxalines: a novel class of selective antagonists at human A(1) and A(3) adenosine receptors designed by 3D database searching” (J Med Chem, 2005)

Key:
Assay type in all cases: cell-based
[1] = molecular target: T1, Adenosine receptor A3 (Homo sapiens, UniProt P0DMS8); assay: Displacement of [125I]AB-MECA from human adenosine A3 receptor expressed in CHO cells
T1 sequence (P0DMS8 whole entry): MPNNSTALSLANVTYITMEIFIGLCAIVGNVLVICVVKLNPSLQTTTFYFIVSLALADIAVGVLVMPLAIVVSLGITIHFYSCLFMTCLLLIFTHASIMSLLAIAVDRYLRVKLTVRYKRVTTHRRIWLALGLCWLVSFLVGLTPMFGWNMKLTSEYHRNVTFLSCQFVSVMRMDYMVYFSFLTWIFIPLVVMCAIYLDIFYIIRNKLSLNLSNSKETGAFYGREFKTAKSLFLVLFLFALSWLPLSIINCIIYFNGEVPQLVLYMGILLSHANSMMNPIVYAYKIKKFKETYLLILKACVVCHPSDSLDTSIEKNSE

[2] = molecular target: Adenosine receptor A2a (Homo sapiens, UniProt P29274); assay: Displacement of [3H]NECA from human adenosine A2A receptor expressed in CHO cells
Sequence of Adenosine receptor A2a (P29274 whole entry): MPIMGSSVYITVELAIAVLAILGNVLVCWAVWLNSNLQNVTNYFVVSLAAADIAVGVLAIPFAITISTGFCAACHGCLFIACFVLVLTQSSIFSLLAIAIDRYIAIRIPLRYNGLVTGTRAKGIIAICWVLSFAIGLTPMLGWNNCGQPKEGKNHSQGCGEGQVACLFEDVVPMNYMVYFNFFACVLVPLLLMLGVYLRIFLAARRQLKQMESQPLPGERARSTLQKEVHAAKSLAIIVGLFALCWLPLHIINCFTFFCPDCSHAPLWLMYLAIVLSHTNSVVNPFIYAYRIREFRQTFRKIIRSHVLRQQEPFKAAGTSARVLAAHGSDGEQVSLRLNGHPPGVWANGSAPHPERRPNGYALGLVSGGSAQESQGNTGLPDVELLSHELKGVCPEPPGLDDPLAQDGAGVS

[3] = molecular target: T2, Adenosine receptor A1 (Homo sapiens, UniProt P30542); assay: Displacement of [3H]DPCPX from human adenosine A1 receptor expressed in CHO cells
T2 sequence (P30542 whole entry): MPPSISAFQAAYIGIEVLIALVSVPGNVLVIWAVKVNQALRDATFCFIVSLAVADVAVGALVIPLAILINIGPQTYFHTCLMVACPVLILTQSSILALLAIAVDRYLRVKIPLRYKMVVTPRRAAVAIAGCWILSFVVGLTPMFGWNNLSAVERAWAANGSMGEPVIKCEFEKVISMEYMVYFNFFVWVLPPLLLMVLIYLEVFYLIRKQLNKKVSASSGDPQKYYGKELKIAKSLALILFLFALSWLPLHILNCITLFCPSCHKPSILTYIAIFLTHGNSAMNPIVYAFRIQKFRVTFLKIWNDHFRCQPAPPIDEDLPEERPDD

Row | Structure (SMILES) | Ki [1] | Ki [2] | Ki [3]
1 | Cc1cc2nc(-c3cnc4ccccc4n3)[nH]c2cc1C | 370 nM | > 10000 nM | > 10000 nM
2 | CCc1nc2c([nH]1)c1nc(CC)[nH]c1c1nc(CC)[nH]c21 | 104 nM | 720 nM | 46 nM
3 | Oc1c2nnnc-2nc2sccn12 | > 1000 nM | > 10000 nM | > 10000 nM
4 | Clc1ccc2[nH]c(-c3cnc4ccccc4n3)nc2c1 | 632 nM | > 10000 nM | > 10000 nM
5 | c1ccc(-c2nnc(-c3ccccn3)[nH]2)nc1 |  | > 10000 nM | > 10000 nM
6 | c1ccc2nc(-c3nc4ncncc4[nH]3)cnc2c1 | > 1000 nM | > 10000 nM | > 10000 nM
7 | CCc1nc2c([nH]1)c1nc(C)[nH]c1c1nc(CC)[nH]c12 | 135 nM | 329 nM | 966 nM
8 | CCSc1cccc2[nH]c(-c3cnc4ccccc4n3)nc12 |  | 3440 nM | 0.5 nM
9 | Cc1cc(Cl)cc2[nH]c(-c3cnc4ccccc4n3)nc12 | 238 nM | > 10000 nM | 3.6 nM
10 | Cc1cccc2[nH]c(-c3cnc4ccccc4n3)nc12 |  | 833 nM | 8000 nM
11 | Clc1cccc2nc(-c3cnc4ccccc4n3)[nH]c12 | 140 nM | > 10000 nM | 350 nM
12 | CCc1nc2c3[nH]c(C)nc3c3nc(C)[nH]c3c2[nH]1 | 147 nM | > 10000 nM | 496 nM
13 | Cc1ccc2[nH]c(-c3cnc4ccccc4n3)nc2c1 | > 1000 nM | > 10000 nM | > 10000 nM
14 | O=c1[nH]c2ccccc2nc1-c1cc(Cl)[nH]n1 |  | > 10000 nM | 
15 | c1ccc2nc(-c3nc4ccccc4[nH]3)cnc2c1 |  | 561 nM | 50 nM
16 | c1c[nH]c2nc(-c3cnc4ccccc4n3)nc-2c1 | > 1000 nM | > 10000 nM | > 10000 nM
17 | CC1CSc2nc3nnnc-3c(O)n21 (configuration not stated) |  | > 10000 nM | > 10000 nM
18 | O=[N+]([O-])c1cccc2[nH]c(-c3cnc4ccccc4n3)nc12 | 879 nM | > 10000 nM | > 10000 nM
19 | Cc1nc2c([nH]1)c1nc(C)[nH]c1c1nc(C)[nH]c21 |  | > 10000 nM | > 10000 nM
20 | CSc1cccc2nc(-c3cnc4ccccc4n3)[nH]c12 | 278 nM | 3000 nM | 2.1 nM
21 | Oc1c2nnnc-2nc2n1CCS2 | > 1000 nM | > 10000 nM | > 10000 nM
22 | COc1ccc2nc(-c3cnc4ccccc4n3)[nH]c2c1 | > 1000 nM | > 10000 nM | > 10000 nM
23 | Clc1cc(Cl)c2[nH]c(-c3cnc4ccccc4n3)nc2c1 | 699 nM | > 10000 nM | 9.3 nM
24 | c1ccc2nc(-c3nc4cc[nH]cc-4n3)cnc2c1 | 168 nM | > 10000 nM | > 10000 nM
25 | Oc1c2nnnc-2nc2n1CCCS2 | 437 nM | > 10000 nM | > 10000 nM
